Reference: PMC5540273, “Progress towards a public chemogenomic set for protein kinases and a call for contributions” (PLoS ONE, 2017)

These compounds were tested against T1, ERK8 (Homo sapiens, UniProt Q8TD08) (assay: KINOMEscan competition binding). Settings: read-out: %Inh ERK8.
T1 sequence (Q8TD08 1-544): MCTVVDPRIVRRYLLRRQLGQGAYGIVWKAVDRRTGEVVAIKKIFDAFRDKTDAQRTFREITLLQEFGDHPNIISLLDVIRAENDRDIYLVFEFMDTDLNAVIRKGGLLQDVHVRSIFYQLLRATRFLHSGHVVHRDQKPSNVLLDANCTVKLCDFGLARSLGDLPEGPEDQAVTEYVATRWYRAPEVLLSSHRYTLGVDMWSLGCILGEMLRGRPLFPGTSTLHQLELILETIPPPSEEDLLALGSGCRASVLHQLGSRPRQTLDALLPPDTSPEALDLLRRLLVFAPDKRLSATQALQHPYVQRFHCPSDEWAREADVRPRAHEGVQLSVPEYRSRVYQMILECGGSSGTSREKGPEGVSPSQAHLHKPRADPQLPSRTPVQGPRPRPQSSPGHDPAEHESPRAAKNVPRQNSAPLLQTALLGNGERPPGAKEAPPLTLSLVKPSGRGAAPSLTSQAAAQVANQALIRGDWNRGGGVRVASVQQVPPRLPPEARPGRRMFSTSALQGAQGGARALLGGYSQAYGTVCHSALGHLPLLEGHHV
In the case of `O=c1cc(N2CCOCC2)nc2n(Cc3cccc(Cl)c3Cl)c(C3CC3)nn12` [UNC10225469A], the inhibition at 1 µM was 13%. Work on `Cn1cc(-c2cnc(N)c3c(-c4ccc5c(c4)CCN5C(=O)Cc4ccccc4)csc23)cn1` [UNC10225012A] yielded an inhibition at 1 µM of 11%. `CS(=O)(=O)Cc1ccc(Nc2nccc(-c3c(-c4cccc(NC(=O)C5CCCCC5)c4)nn4ncccc34)n2)cc1` [UNC10225159A] was tested, and the inhibition at 1 µM was 0%. Work on `COc1cccc(OC)c1C(=O)Nc1cccc(-c2nn3ccccc3c2-c2ccnc(Nc3cccc(F)c3)n2)c1` [UNC10225310A] yielded an inhibition at 1 µM of 3%. `Cc1ccc(NC(=O)Nc2cccc(C(F)(F)F)c2)cc1` [UNC10225187A] gave an inhibition at 1 µM of 0%.

The compounds below were run against T2, EPHA3 (Homo sapiens, UniProt P29320) (assay: KINOMEscan competition binding). Settings: read-out: %Inh EPHA3.
T2 sequence (P29320 21-983): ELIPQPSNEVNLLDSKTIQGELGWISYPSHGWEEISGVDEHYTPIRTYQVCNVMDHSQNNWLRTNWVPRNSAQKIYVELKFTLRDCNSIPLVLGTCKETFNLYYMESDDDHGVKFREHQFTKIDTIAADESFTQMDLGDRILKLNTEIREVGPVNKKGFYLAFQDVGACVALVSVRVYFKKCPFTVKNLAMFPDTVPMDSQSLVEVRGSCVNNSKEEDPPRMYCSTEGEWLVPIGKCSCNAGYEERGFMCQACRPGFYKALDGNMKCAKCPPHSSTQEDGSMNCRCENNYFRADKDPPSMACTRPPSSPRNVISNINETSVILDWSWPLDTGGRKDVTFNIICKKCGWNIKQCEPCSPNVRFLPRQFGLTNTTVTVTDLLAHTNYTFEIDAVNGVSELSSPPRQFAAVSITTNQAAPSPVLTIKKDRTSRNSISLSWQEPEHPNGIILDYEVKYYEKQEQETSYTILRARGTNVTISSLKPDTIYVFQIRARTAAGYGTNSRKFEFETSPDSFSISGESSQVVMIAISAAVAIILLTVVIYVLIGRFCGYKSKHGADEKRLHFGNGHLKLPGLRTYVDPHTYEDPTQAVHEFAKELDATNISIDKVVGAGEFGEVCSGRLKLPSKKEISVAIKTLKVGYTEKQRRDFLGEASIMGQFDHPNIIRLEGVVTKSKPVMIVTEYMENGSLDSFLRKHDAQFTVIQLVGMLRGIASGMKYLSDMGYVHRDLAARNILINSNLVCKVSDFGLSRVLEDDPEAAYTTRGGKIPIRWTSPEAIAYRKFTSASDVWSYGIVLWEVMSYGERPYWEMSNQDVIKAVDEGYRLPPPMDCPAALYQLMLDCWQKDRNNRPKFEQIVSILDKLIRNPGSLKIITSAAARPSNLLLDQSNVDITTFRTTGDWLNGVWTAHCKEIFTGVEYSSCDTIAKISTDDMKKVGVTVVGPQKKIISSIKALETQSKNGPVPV
`O=c1cc(N2CCOCC2)nc2n(Cc3cccc(Cl)c3Cl)c(C3CC3)nn12` [UNC10225469A] showed an inhibition at 1 µM of 0%. `Cn1cc(-c2cnc(N)c3c(-c4ccc5c(c4)CCN5C(=O)Cc4ccccc4)csc23)cn1` [UNC10225012A] showed an inhibition at 1 µM of 0%. `CS(=O)(=O)Cc1ccc(Nc2nccc(-c3c(-c4cccc(NC(=O)C5CCCCC5)c4)nn4ncccc34)n2)cc1` [UNC10225159A] gave an inhibition at 1 µM of 16%. `COc1cccc(OC)c1C(=O)Nc1cccc(-c2nn3ccccc3c2-c2ccnc(Nc3cccc(F)c3)n2)c1` [UNC10225310A] gave an inhibition at 1 µM of 0%. Compound `Cc1ccc(NC(=O)Nc2cccc(C(F)(F)F)c2)cc1` [UNC10225187A] has an inhibition at 1 µM of 0%.

What follows are compounds tested against AMPK-alpha2 (Homo sapiens, UniProt P54646) (assay: KINOMEscan competition binding). Settings: read-out: %Inh AMPK-alpha2.
Sequence of AMPK-alpha2 (P54646 whole entry): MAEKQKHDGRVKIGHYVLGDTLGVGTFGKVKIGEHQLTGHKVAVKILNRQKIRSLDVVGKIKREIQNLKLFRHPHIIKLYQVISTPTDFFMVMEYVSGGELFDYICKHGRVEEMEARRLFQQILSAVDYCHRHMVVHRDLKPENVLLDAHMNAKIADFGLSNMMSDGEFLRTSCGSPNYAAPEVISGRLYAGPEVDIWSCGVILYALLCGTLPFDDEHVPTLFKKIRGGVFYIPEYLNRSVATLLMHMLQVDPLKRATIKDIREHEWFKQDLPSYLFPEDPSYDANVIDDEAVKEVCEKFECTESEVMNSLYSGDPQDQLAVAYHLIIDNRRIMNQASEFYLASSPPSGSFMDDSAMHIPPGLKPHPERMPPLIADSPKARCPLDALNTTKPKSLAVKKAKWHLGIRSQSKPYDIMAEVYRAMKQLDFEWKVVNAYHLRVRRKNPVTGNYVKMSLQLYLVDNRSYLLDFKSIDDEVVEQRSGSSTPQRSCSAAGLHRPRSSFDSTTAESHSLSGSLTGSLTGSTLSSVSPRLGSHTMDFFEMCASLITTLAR
`O=c1cc(N2CCOCC2)nc2n(Cc3cccc(Cl)c3Cl)c(C3CC3)nn12` [UNC10225469A] gave an inhibition at 1 µM of 0%. In the case of `Cn1cc(-c2cnc(N)c3c(-c4ccc5c(c4)CCN5C(=O)Cc4ccccc4)csc23)cn1` [UNC10225012A], the inhibition at 1 µM was 0%. For `CS(=O)(=O)Cc1ccc(Nc2nccc(-c3c(-c4cccc(NC(=O)C5CCCCC5)c4)nn4ncccc34)n2)cc1` [UNC10225159A], the inhibition at 1 µM was 2%. `COc1cccc(OC)c1C(=O)Nc1cccc(-c2nn3ccccc3c2-c2ccnc(Nc3cccc(F)c3)n2)c1` [UNC10225310A] gave an inhibition at 1 µM of 4%. For `Cc1ccc(NC(=O)Nc2cccc(C(F)(F)F)c2)cc1` [UNC10225187A], the inhibition at 1 µM was 0%.

These compounds were tested against T3, GAK (Homo sapiens, UniProt O14976) (assay: KINOMEscan competition binding). Settings: read-out: %Inh GAK.
T3 sequence (O14976 1-1311): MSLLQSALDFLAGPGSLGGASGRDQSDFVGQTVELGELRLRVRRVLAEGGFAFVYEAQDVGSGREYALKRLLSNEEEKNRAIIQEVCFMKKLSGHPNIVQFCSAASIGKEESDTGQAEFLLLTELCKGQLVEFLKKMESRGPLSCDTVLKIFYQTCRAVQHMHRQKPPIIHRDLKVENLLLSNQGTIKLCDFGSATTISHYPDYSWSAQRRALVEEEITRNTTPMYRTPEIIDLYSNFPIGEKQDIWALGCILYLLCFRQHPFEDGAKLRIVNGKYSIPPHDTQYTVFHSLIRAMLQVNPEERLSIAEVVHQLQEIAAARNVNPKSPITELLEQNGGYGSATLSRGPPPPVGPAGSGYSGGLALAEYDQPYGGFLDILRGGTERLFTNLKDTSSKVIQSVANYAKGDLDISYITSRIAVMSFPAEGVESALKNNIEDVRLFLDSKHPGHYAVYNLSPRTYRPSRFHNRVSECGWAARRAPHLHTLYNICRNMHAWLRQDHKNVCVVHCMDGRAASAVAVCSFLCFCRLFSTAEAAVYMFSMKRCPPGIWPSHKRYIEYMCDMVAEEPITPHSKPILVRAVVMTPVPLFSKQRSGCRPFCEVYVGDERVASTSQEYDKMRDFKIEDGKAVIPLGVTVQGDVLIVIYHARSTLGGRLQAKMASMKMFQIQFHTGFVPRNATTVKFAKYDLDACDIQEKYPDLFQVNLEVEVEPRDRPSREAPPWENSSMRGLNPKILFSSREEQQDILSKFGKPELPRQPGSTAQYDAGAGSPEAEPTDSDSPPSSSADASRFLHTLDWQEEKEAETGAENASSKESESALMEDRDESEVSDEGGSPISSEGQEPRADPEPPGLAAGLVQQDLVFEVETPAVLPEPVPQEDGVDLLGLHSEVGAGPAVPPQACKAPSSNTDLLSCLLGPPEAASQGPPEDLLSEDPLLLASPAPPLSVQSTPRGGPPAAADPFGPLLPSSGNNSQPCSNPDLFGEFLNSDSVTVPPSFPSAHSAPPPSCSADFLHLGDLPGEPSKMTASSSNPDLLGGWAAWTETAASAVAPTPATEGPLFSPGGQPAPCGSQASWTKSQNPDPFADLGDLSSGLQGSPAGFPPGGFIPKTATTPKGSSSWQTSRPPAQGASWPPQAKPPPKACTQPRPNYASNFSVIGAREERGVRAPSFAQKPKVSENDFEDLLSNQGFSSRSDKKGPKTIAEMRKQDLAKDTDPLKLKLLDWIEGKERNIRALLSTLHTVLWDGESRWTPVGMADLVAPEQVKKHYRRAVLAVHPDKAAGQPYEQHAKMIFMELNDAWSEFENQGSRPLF
Work on `O=c1cc(N2CCOCC2)nc2n(Cc3cccc(Cl)c3Cl)c(C3CC3)nn12` [UNC10225469A] yielded an inhibition at 1 µM of 11%. Compound `Cn1cc(-c2cnc(N)c3c(-c4ccc5c(c4)CCN5C(=O)Cc4ccccc4)csc23)cn1` [UNC10225012A] has an inhibition at 1 µM of 11%. For `CS(=O)(=O)Cc1ccc(Nc2nccc(-c3c(-c4cccc(NC(=O)C5CCCCC5)c4)nn4ncccc34)n2)cc1` [UNC10225159A], the inhibition at 1 µM was 14%. In the case of `COc1cccc(OC)c1C(=O)Nc1cccc(-c2nn3ccccc3c2-c2ccnc(Nc3cccc(F)c3)n2)c1` [UNC10225310A], the inhibition at 1 µM was 6%. For `Cc1ccc(NC(=O)Nc2cccc(C(F)(F)F)c2)cc1` [UNC10225187A], the inhibition at 1 µM was 0%.
